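96-well plates; 48 h exposure; 5 concentrations. Endpoints by linear interpolation between flanking doses. Not reached: highest tested concentration assigned. GI50 marks 50% less growth. At the TGI there is no net growth.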
What was measured:
Experiment in all cases: DTP human tumour cell line panel, 48 h
786-0 renal = tested on: 786-0 renal
A498 renal = tested on: A498 renal
ACHN renal = tested on: ACHN renal
BT-549 breast = tested on: BT-549 breast
CAKI-1 renal = tested on: CAKI-1 renal
CCRF-CEM leukemia = tested on: CCRF-CEM leukemia
COLO 205 colon = tested on: COLO 205 colon
DU-145 prostate = tested on: DU-145 prostate
EKVX NSCLC = tested on: EKVX NSCLC
HCC-2998 colon = tested on: HCC-2998 colon
HCT-116 colon = tested on: HCT-116 colon
HCT-15 colon = tested on: HCT-15 colon
HL-60(TB) leukemia = tested on: HL-60(TB) leukemia
HOP-62 NSCLC = tested on: HOP-62 NSCLC
HS 578T breast = tested on: HS 578T breast
HT29 colon = tested on: HT29 colon
K-562 leukemia = tested on: K-562 leukemia
KM12 colon = tested on: KM12 colon
M14 melanoma = tested on: M14 melanoma
MALME-3M melanoma = tested on: MALME-3M melanoma
MCF7 breast = tested on: MCF7 breast
MDA-MB-231 breast = tested on: MDA-MB-231 breast
MDA-MB-435 = tested on: MDA-MB-435
MOLT-4 leukemia = tested on: MOLT-4 leukemia
NCI-H226 lung = tested on: NCI-H226 lung
NCI-H23 lung = tested on: NCI-H23 lung
NCI-H460 lung = tested on: NCI-H460 lung
NCI/ADR-RES ovarian = tested on: NCI/ADR-RES ovarian
OVCAR-3 ovarian = tested on: OVCAR-3 ovarian
OVCAR-4 ovarian = tested on: OVCAR-4 ovarian
OVCAR-5 ovarian = tested on: OVCAR-5 ovarian
OVCAR-8 ovarian = tested on: OVCAR-8 ovarian
PC-3 prostate = tested on: PC-3 prostate
RPMI-8226 leukemia = tested on: RPMI-8226 leukemia
RXF 393 renal = tested on: RXF 393 renal
SF-268 CNS = tested on: SF-268 CNS
SF-295 CNS = tested on: SF-295 CNS
SF-539 CNS = tested on: SF-539 CNS
SK-MEL-2 melanoma = tested on: SK-MEL-2 melanoma
SK-MEL-28 melanoma = tested on: SK-MEL-28 melanoma
SK-MEL-5 melanoma = tested on: SK-MEL-5 melanoma
SK-OV-3 ovarian = tested on: SK-OV-3 ovarian
SN12C renal = tested on: SN12C renal
SNB-19 CNS = tested on: SNB-19 CNS
SNB-75 CNS = tested on: SNB-75 CNS
SW-620 colon = tested on: SW-620 colon
T-47D breast = tested on: T-47D breast
TK-10 renal = tested on: TK-10 renal
U251 CNS = tested on: U251 CNS
UACC-257 melanoma = tested on: UACC-257 melanoma
UACC-62 melanoma = tested on: UACC-62 melanoma
UO-31 renal = tested on: UO-31 renal
A549 NSCLC = tested on: A549 NSCLC
IGROV1 ovarian = tested on: IGROV1 ovarian
NCI-H522 lung = tested on: NCI-H522 lung
SR leukemia = tested on: SR leukemia

CCn1cc(C(=O)O)c(=O)c2cc(F)c(N3CCN(S(=O)(=O)c4ccc(Cl)cc4)CC3)cc21
GI50 (786-0 renal): 3.77 µM
TGI (786-0 renal): > 100 µM
GI50 (A498 renal): 1.81 µM
TGI (A498 renal): 7.47 µM
GI50 (ACHN renal): 3.09 µM
TGI (ACHN renal): 9.87 µM
GI50 (BT-549 breast): 2.44 µM
TGI (BT-549 breast): 7.27 µM
GI50 (CAKI-1 renal): 2.75 µM
TGI (CAKI-1 renal): 7.06 µM
GI50 (CCRF-CEM leukemia): 2.93 µM
TGI (CCRF-CEM leukemia): > 100 µM
GI50 (COLO 205 colon): 2.62 µM
TGI (COLO 205 colon): 5.84 µM
GI50 (DU-145 prostate): 4.11 µM
TGI (DU-145 prostate): > 100 µM
GI50 (EKVX NSCLC): 2.25 µM
TGI (EKVX NSCLC): 9.89 µM
GI50 (HCC-2998 colon): 4.1 µM
TGI (HCC-2998 colon): > 100 µM
GI50 (HCT-116 colon): 3.18 µM
TGI (HCT-116 colon): > 100 µM
GI50 (HCT-15 colon): 3.62 µM
TGI (HCT-15 colon): > 100 µM
GI50 (HL-60(TB) leukemia): 2.18 µM
TGI (HL-60(TB) leukemia): 4.81 µM
GI50 (HOP-62 NSCLC): 4.47 µM
TGI (HOP-62 NSCLC): > 100 µM
GI50 (HS 578T breast): 4.52 µM
TGI (HS 578T breast): > 100 µM
GI50 (HT29 colon): 2.64 µM
TGI (HT29 colon): 6.21 µM
GI50 (K-562 leukemia): 2.91 µM
TGI (K-562 leukemia): > 100 µM
GI50 (KM12 colon): 4.07 µM
TGI (KM12 colon): > 100 µM
GI50 (M14 melanoma): 2.85 µM
TGI (M14 melanoma): > 100 µM
GI50 (MALME-3M melanoma): 1.99 µM
TGI (MALME-3M melanoma): 5.25 µM
GI50 (MCF7 breast): 2.98 µM
TGI (MCF7 breast): > 100 µM
GI50 (MDA-MB-231 breast): 2.51 µM
TGI (MDA-MB-231 breast): > 100 µM
GI50 (MDA-MB-435): 2.47 µM
TGI (MDA-MB-435): 7.55 µM
GI50 (MOLT-4 leukemia): 3.83 µM
TGI (MOLT-4 leukemia): > 100 µM
GI50 (NCI-H226 lung): 3.02 µM
TGI (NCI-H226 lung): > 100 µM
GI50 (NCI-H23 lung): 2.67 µM
TGI (NCI-H23 lung): 7.15 µM
GI50 (NCI-H460 lung): 3.16 µM
TGI (NCI-H460 lung): > 100 µM
GI50 (NCI/ADR-RES ovarian): 2.98 µM
TGI (NCI/ADR-RES ovarian): 8.99 µM
GI50 (OVCAR-3 ovarian): 3.51 µM
TGI (OVCAR-3 ovarian): > 100 µM
GI50 (OVCAR-4 ovarian): 2.2 µM
TGI (OVCAR-4 ovarian): 7.57 µM
GI50 (OVCAR-5 ovarian): 4.25 µM
TGI (OVCAR-5 ovarian): > 100 µM
GI50 (OVCAR-8 ovarian): 2.8 µM
TGI (OVCAR-8 ovarian): > 100 µM
GI50 (PC-3 prostate): 2.31 µM
TGI (PC-3 prostate): 8.22 µM
GI50 (RPMI-8226 leukemia): 3.08 µM
TGI (RPMI-8226 leukemia): > 100 µM
GI50 (RXF 393 renal): 3.32 µM
TGI (RXF 393 renal): > 100 µM
GI50 (SF-268 CNS): 3.85 µM
TGI (SF-268 CNS): > 100 µM
GI50 (SF-295 CNS): 3.78 µM
TGI (SF-295 CNS): 11.8 µM
GI50 (SF-539 CNS): 4.12 µM
TGI (SF-539 CNS): > 100 µM
GI50 (SK-MEL-2 melanoma): 2.57 µM
TGI (SK-MEL-2 melanoma): 5.67 µM
GI50 (SK-MEL-28 melanoma): 4.88 µM
TGI (SK-MEL-28 melanoma): > 100 µM
GI50 (SK-MEL-5 melanoma): 1.8 µM
TGI (SK-MEL-5 melanoma): 3.51 µM
GI50 (SK-OV-3 ovarian): 3.28 µM
TGI (SK-OV-3 ovarian): 9.23 µM
GI50 (SN12C renal): 2.92 µM
TGI (SN12C renal): > 100 µM
GI50 (SNB-19 CNS): 3.97 µM
TGI (SNB-19 CNS): > 100 µM
GI50 (SNB-75 CNS): 2.6 µM
TGI (SNB-75 CNS): 9.81 µM
GI50 (SW-620 colon): 3.43 µM
TGI (SW-620 colon): > 100 µM
GI50 (T-47D breast): 3.2 µM
TGI (T-47D breast): 14.3 µM
GI50 (TK-10 renal): 3.73 µM
TGI (TK-10 renal): > 100 µM
GI50 (U251 CNS): 3.1 µM
TGI (U251 CNS): > 100 µM
GI50 (UACC-257 melanoma): 2.16 µM
TGI (UACC-257 melanoma): 5.5 µM
GI50 (UACC-62 melanoma): 2.02 µM
TGI (UACC-62 melanoma): 7.44 µM
GI50 (UO-31 renal): 2.07 µM
TGI (UO-31 renal): 7.66 µM

O=C(/C=C/c1ccc(Cl)cc1)/C=C/c1cc2ccccc2[nH]c1=O
GI50 (786-0 renal): 2.02 µM
TGI (786-0 renal): 4.16 µM
GI50 (A498 renal): 5.87 µM
TGI (A498 renal): 18.8 µM
GI50 (A549 NSCLC): 3.16 µM
TGI (A549 NSCLC): 48.9 µM
GI50 (ACHN renal): 4.96 µM
TGI (ACHN renal): 20.3 µM
GI50 (BT-549 breast): 3.29 µM
TGI (BT-549 breast): 11.7 µM
GI50 (CAKI-1 renal): 4.38 µM
TGI (CAKI-1 renal): 21.8 µM
GI50 (CCRF-CEM leukemia): 3.09 µM
TGI (CCRF-CEM leukemia): 9.74 µM
GI50 (COLO 205 colon): 3.65 µM
TGI (COLO 205 colon): 11.7 µM
GI50 (DU-145 prostate): 3.52 µM
TGI (DU-145 prostate): 11.7 µM
GI50 (HCC-2998 colon): 2.02 µM
TGI (HCC-2998 colon): 3.62 µM
GI50 (HCT-15 colon): 2.85 µM
TGI (HCT-15 colon): 14.6 µM
GI50 (HL-60(TB) leukemia): 2.83 µM
TGI (HL-60(TB) leukemia): 8.39 µM
GI50 (HOP-62 NSCLC): 8.21 µM
TGI (HOP-62 NSCLC): 26 µM
GI50 (HS 578T breast): 4.14 µM
TGI (HS 578T breast): 66.6 µM
GI50 (HT29 colon): 2.5 µM
TGI (HT29 colon): 6.33 µM
GI50 (IGROV1 ovarian): 2.34 µM
TGI (IGROV1 ovarian): 5.5 µM
GI50 (KM12 colon): 3.11 µM
TGI (KM12 colon): 10.3 µM
GI50 (M14 melanoma): 3.11 µM
TGI (M14 melanoma): 13.4 µM
GI50 (MALME-3M melanoma): 7.63 µM
TGI (MALME-3M melanoma): 38.4 µM
GI50 (MCF7 breast): 0.923 µM
TGI (MCF7 breast): 8.45 µM
GI50 (MDA-MB-231 breast): 2.64 µM
TGI (MDA-MB-231 breast): 7.82 µM
GI50 (MDA-MB-435): 2.34 µM
TGI (MDA-MB-435): 5.63 µM
GI50 (MOLT-4 leukemia): 3.82 µM
TGI (MOLT-4 leukemia): 13.8 µM
GI50 (NCI-H226 lung): 2.59 µM
TGI (NCI-H226 lung): 11.4 µM
GI50 (NCI-H23 lung): 4.76 µM
TGI (NCI-H23 lung): 23.5 µM
GI50 (NCI-H460 lung): 8.52 µM
TGI (NCI-H460 lung): 28.9 µM
GI50 (NCI-H522 lung): 1.91 µM
TGI (NCI-H522 lung): 5.4 µM
GI50 (NCI/ADR-RES ovarian): 16.8 µM
TGI (NCI/ADR-RES ovarian): > 100 µM
GI50 (OVCAR-3 ovarian): 2.07 µM
TGI (OVCAR-3 ovarian): 4.5 µM
GI50 (OVCAR-4 ovarian): 5.06 µM
TGI (OVCAR-4 ovarian): 74.3 µM
GI50 (OVCAR-5 ovarian): 4.65 µM
TGI (OVCAR-5 ovarian): 19.6 µM
GI50 (OVCAR-8 ovarian): 3.03 µM
TGI (OVCAR-8 ovarian): 12.9 µM
GI50 (PC-3 prostate): 2.91 µM
TGI (PC-3 prostate): 13.7 µM
GI50 (RPMI-8226 leukemia): 1.29 µM
TGI (RPMI-8226 leukemia): 4.65 µM
GI50 (RXF 393 renal): 2.81 µM
TGI (RXF 393 renal): 8.88 µM
GI50 (SF-268 CNS): 3.61 µM
TGI (SF-268 CNS): 16 µM
GI50 (SF-295 CNS): 3.48 µM
TGI (SF-295 CNS): 13.2 µM
GI50 (SF-539 CNS): 2.88 µM
TGI (SF-539 CNS): 9.37 µM
GI50 (SK-MEL-28 melanoma): 10 µM
TGI (SK-MEL-28 melanoma): 26.2 µM
GI50 (SK-MEL-5 melanoma): 10.1 µM
TGI (SK-MEL-5 melanoma): 25.2 µM
GI50 (SK-OV-3 ovarian): 12.2 µM
TGI (SK-OV-3 ovarian): 32.7 µM
GI50 (SN12C renal): 3.67 µM
TGI (SN12C renal): 17.4 µM
GI50 (SNB-19 CNS): 11.3 µM
TGI (SNB-19 CNS): 24.7 µM
GI50 (SNB-75 CNS): 5.79 µM
TGI (SNB-75 CNS): 24.7 µM
GI50 (SR leukemia): 2.42 µM
TGI (SR leukemia): 8.19 µM
GI50 (SW-620 colon): 2.31 µM
TGI (SW-620 colon): 5.82 µM
GI50 (T-47D breast): 3.46 µM
TGI (T-47D breast): 22.7 µM
GI50 (TK-10 renal): 12.3 µM
TGI (TK-10 renal): 31.8 µM
GI50 (U251 CNS): 1.81 µM
TGI (U251 CNS): 3.68 µM
GI50 (UACC-257 melanoma): 5.2 µM
TGI (UACC-257 melanoma): 19.6 µM
GI50 (UACC-62 melanoma): 2.8 µM
TGI (UACC-62 melanoma): 10.5 µM
GI50 (UO-31 renal): 4.28 µM
TGI (UO-31 renal): 20 µM

Reference: PubChem BioAssay (NCI)
